The text below walks through data of patent US20190070170A1, “METHOD OF S[…]-1” (Macau University of Science and Technology, priority 2017, published 2019).

Molecules are shown by their SMILES.

Common to all, as to format: cell-based
One test has as its system TNF-α. The test is described as follows: TNF-α level in LPS-stimulated rat peritoneal macrophages (ELISA). The settings on record: pretreatment 1 h, LPS 1 μg/ml 24 h. As to the method: Sprague-Dawley (SD) rats from the University of Hong Kong were housed in cages with free access to food and water. Peritoneal macrophages of SD rats were isolated as described in Liu J. et al., Pharmacological research 2016, 111:303-315. Briefly, untreated rats were sacrificed and after laparotomy, about 50 ml cold sterile Hank's balanced salt solution (HBSS) was used to lavage the peritoneal cavity at twice, and then the peritoneal lavage fluid was collected and centrifuged at 1500 rpm for 10 min. The cell pellets was suspended at a density 1.5×10^6 cells/ml in pre-hearted DMEM medium with 10% heat-inactivated FBS, penicillin G (100 units/ml), streptomycin ([…]), and L-glutamine (2 mM), followed by seeding in 6-well plates at a density of 4.5×10^6 cells and incubation for 2 h. Then the medium were discarded to remove the non-adherent cells. The adherent cells were further washed for two times with pre-heated DMEM medium to remove floating cells. Next, cells were pre-treated with various concentration of SIN for 1 h, followed by stimulation with LPS (1 μg/ml).
RAW264.7 cells and rat peritoneal macrophages were seeded in a 96-well plate at density of 1.4×10^4 and 1.5×10^5 cells, respectively. […] The optical density was measured at 570 nm against a reference wavelength of 650 nm using a microplate UV/VIS spectrophotometer (Tecan, Mannedorf, Switzerland). […]
For orientation: In an ELISA, binding on a coated surface is turned into a signal by an enzyme label.

A further test deals with CEBPβ (COX-2 promoter). Nature of the test: ChIP assay: CEBPβ DNA binding to COX-2 promoter in LPS-stimulated rat peritoneal macrophages. As to conditions: 640 μM SIN 1 h, 1 μg/ml LPS 30 min. As for the experimental part: Rat peritoneal macrophages were pretreated with 640 μM SIN (1 h) and stimulated with 1 μg/ml LPS (30 min) before fixation at room temperature for 10 min with 1% formaldehyde. Fixation was terminated by adding glycine (to 0.125 M) with an additional incubation of 5 min, then the cells were washed twice with ice-cold PBS and harvested by scraping and centrifugation (1500 rpm for 10 min at 4° C.). Cell lysis was performed using ChIP kit from abcam (Cambridge, UK) according to the manufacturer's instructions. Briefly, cell pellets were resuspended in 1 ml Buffer B by pipetting up and down several times in a microcentrifuge tube and incubated at room temperature for 10 min. After centrifugation at 5000 rpm, the pellet was collected and resuspended in ice cold Buffer C and incubated on ice for 10 min, followed by centrifugation (5,000 rpm for 10 min at 4° C.). The pellet was mixed with 100 μl Buffer D containing protease inhibitors, incubated on ice for 10 min and sonicated for 30 cycles in a Bioruptor UCD-300 sonicator (power on high, 30 s on, 30 s off per cycle), yielding DNA fragments of 150-200 bps (the size of sonicated chromatin was checked through running 2% agarose gel). Beads were blocked overnight in PBS with 0.5% BSA and then added to the samples. […]

Another test deals with NF-κB. Nature of the test: EMSA for NF-κB DNA binding activity in LPS-stimulated rat peritoneal macrophages. As to conditions: LPS-induced, nuclear extract. As to the method:
Nuclear extract proteins (10 μg) for the assay of the DNA binding activity of NF-κB were tested with a biotin-labeled oligonucleotide bio-NF-κB probe according to manufacturer's instructions of EMSA kit (Viagene Biotech).
On the technique in general: Mobility shift assays separate free from complexed probe on a gel.

The test system of the next test is COX-2. Nature of the test: COX-2 protein expression in IL-1β-stimulated A549 cells (western blotting). The settings on record: IL-1β with SIN or DEX for 48 h. As to the method:
RAW264.7 and A549 cell lines were obtained from American Type Culture Collection (ATCC, Manassas, Va., USA) and maintained in DMEM (RAW264.7) or 1640 (A549) medium containing 10% FBS (Gibco-BRL, Grand Island, N.Y., USA) and antibiotics at 37° C. in a humidified atmosphere containing 5% CO2. RAW264.7 cells were plated in 6-well plates at a density of 4×10^5 cells and incubated for 24 h, then the cells were pretreated with different concentrations of SIN for 1 h before stimulating with LPS (100 ng/ml). A549 cells were seeded in 6-well plates at a density of 1×10^5 cells and incubated for 24 h, followed by pretreatment with SIN. A549 cells were then stimulated by IL-1β (1 ng/ml).
Whole-cell and nuclear proteins were obtained using RIPA lysis buffer (CST, Boston, Mass., USA) and Nuclear and Cytoplasmic Extraction Reagents kit from Thermo Scientific (Asheville, N.C., USA), respectively. For immunoblotting, proteins from whole-cell, cytoplasm, nuclear, and microsomal fractions were separated on SDS-PAGE, then transferred onto a nitrocellulose membrane from GE Healthcare Life Sciences (Buckinghamshire, UK), and incubated with 5% skimmed milk at room temperature for 1 h. […] The levels of protein expression were measured using Odyssey v3.0 software from Li-COR (Lincoln, Nebr., USA).

`COC1=C[C@@H]2[C@@H]3Cc4ccc(OC)c(O)c4[C@]2(CCN3C)CC1=O` [SIN, sinomenine]: in the test with TNF-α, the TNF-α production result is on record as “significantly inhibited”. Besides, in the test with CEBPβ (COX-2 promoter), the “DNA binding of CEBPβ to the COX-2 promoter” value is listed as “inhibited”. Further, the “NF-κB DNA binding activity (EMSA)” value with NF-κB was “capable of suppressing”. In the test on COX-2, the COX-2 protein expression entry was “did not suppress”.
